Patent US7456133B2, “Substituted arylketones” (Bayer CropScience AG, priority 2001, dated 2008)

Test system: not listed separately
Assay: Log P by reversed-phase HPLC (C 18), acidic range
Type: physicochemical
Details: Table 1, labelled a): acidic range, 0.1% aqueous phosphoric acid/acetonitrile gradient, 43° C.
Description: Log P values given in the tables were determined in accordance with EEC Directive 79/831 Annex V.A8 by HPLC (High Performance Liquid Chromatography) using a reversed-phase column (C 18). Temperature: 43° C. (a) Mobile phases for the determination in the acidic range: 0.1% aqueous phosphoric acid, acetonitrile; linear gradient from 10% acetonitrile to 90% acetonitrile—the corresponding measurement results in Tables 1 and 2 are labelled^a).

Row | Compound | log P
1 | O=C1CCCC(=O)C1C(=O)c1ccc(Cl)c(CNC(=S)Nc2ccccc2)c1Cl [Example I-2-9] | log P = 3.05^a)
2 | CC(C)NC(=O)N(Cc1c(Cl)ccc(C(=O)C2C(=O)CCCC2=O)c1Cl)C(C)C [Example I-2-10] | log P = 2.86^a)
3 | CC(C)NC(=O)N(Cc1c(Cl)ccc(C(=O)c2cnn(C)c2O)c1Cl)C(C)C [Example I-2-11] | log P = 2.02^a)
4 | CC(C)N(Cc1c(Cl)ccc(C(=O)C2C(=O)CCCC2=O)c1Cl)C(N)=O [Example I-2-12] | log P = 2.03^a)
5 | COCC(=O)NCCOc1c(Cl)ccc(C(=O)C2C(=O)CCCC2=O)c1Cl [Example I-2-13] | log P = 2.12^a)
6 | CC(C)N(Cc1c(Cl)ccc(C(=O)c2cnn(C)c2O)c1Cl)C(N)=O [Example I-2-14] | log P = 1.32^a)
7 | CCNC(=O)N(Cc1c(Cl)ccc(C(=O)C2C(=O)CCCC2=O)c1Cl)C(C)C [Example I-2-15] | log P = 2.33^a)
8 | CCNC(=O)N(Cc1c(Cl)ccc(C(=O)c2cnn(C)c2O)c1Cl)C(C)C [Example I-2-16] | log P = 1.42^a)
9 | CC(C)N(Cc1c(Cl)ccc(C(=O)C2C(=O)CCCC2=O)c1Cl)C(=O)N(C)C [Example I-2-17] | log P = 2.82^a)
10 | CC(C)N(Cc1c(Cl)ccc(C(=O)c2cnn(C)c2O)c1Cl)C(=O)N(C)C [Example I-2-18] | log P = 2.00^a)
11 | Cc1ccccc1NC(=O)NCc1c(Cl)ccc(C(=O)c2cnn(C)c2O)c1Cl [Example I-2-19] | log P = 1.95^a)
12 | CN(C)C(=O)NCc1c(Cl)ccc(C(=O)C2C(=O)CCCC2=O)c1Cl [Example I-2-21] | log P = 1.87^a)
13 | CC(C)NC(=O)NCc1c(Cl)ccc(C(=O)c2cnn(C)c2O)c1Cl [Example I-2-22] | log P = 1.35^a)
14 | CN(C)C(=O)NCc1c(Cl)ccc(C(=O)c2cnn(C)c2O)c1Cl [Example I-2-23] | log P = 1.13^a)
15 | CN(C)C(=O)N(Cc1c(Cl)ccc(C(=O)C2C(=O)CCCC2=O)c1Cl)C1CC1 [Example I-2-24] | log P = 2.45^a)
16 | CN(C)C(=O)N(Cc1c(Cl)ccc(C(=O)c2cnn(C)c2O)c1Cl)c1ccc(Cl)cc1 [Example I-2-25] | log P = 1.69^a)
17 | CC(C)N(Cc1c(Cl)ccc(C(=O)C2C(=O)CCCC2=O)c1Cl)C(=O)Oc1ccccc1 [Example I-2-42] | log P = 4.25^a)
18 | CC(C)N(Cc1c(Cl)ccc(C(=O)c2cnn(C)c2O)c1Cl)C(=O)Oc1ccccc1 [Example I-2-43] | log P = 3.19^a)
19 | CCOC(=O)N(Cc1c(Cl)ccc(C(=O)C2C(=O)CCCC2=O)c1Cl)C(C)C [Example I-2-44] | log P = 3.69^a)
20 | CCOC(=O)N(Cc1c(Cl)ccc(C(=O)c2cnn(C)c2O)c1Cl)C(C)C [Example I-2-45] | log P = 2.69^a)

Row | Compound | log P
21 | CC(C)NC(=O)N(Cc1c(Cl)ccc(C(=O)C2C(=O)CCCC2=O)c1Cl)C1CC1 [Example I-2-56] | log P = 2.75^a)
22 | CNC(=S)N(Cc1c(Cl)ccc(C(=O)c2cnn(C)c2O)c1Cl)C(C)C [Example I-2-58] | log P = 1.91^a)
23 | CNC(=O)N(C)Cc1c(Cl)ccc(C(=O)C2C(=O)CCCC2=O)c1Cl [Example I-2-59] | log P = 1.81^a)
24 | CNC(=O)N(C)Cc1c(Cl)ccc(C(=O)c2cnn(C)c2O)c1Cl [Example I-2-60] | log P = 1.11^a)
25 | CN(C)C(=O)N(C)Cc1c(Cl)ccc(C(=O)C2C(=O)CCCC2=O)c1Cl [Example I-2-61] | log P = 2.26^a)
26 | CN(C)C(=O)N(C)Cc1c(Cl)ccc(C(=O)c2cnn(C)c2O)c1Cl [Example I-2-62] | log P = 1.48^a)
27 | CNC(=S)N(C)Cc1c(S(C)(=O)=O)ccc(C(=O)C2C(=O)CCCC2=O)c1Cl [Example I-2-63] | log P = 1.81^a)
28 | CNC(=S)N(C)Cc1c(S(C)(=O)=O)ccc(C(=O)c2cnn(C)c2O)c1Cl [Example I-2-64] | log P = 1.00^a)
29 | Cn1ncc(C(=O)c2ccc(S(C)(=O)=O)c(CNC(N)=O)c2Cl)c1O [Example I-2-65] | log P = 0.30^a)
30 | CCNC(=O)NCc1c(S(C)(=O)=O)ccc(C(=O)C2C(=O)CCCC2=O)c1Cl [Example I-2-66] | log P = 1.57^a)
31 | O=C(NCCOc1c(Cl)ccc(C(=O)C2C(=O)CCCC2=O)c1Cl)C1CC1 [Example I-2-68] | log P = 2.28^a)
32 | CC(C)OC(=O)NCCOc1c(Cl)ccc(C(=O)C2C(=O)CCCC2=O)c1Cl [Example I-2-69] | log P = 2.98^a)
33 | CNC(=O)NCCOc1c(Cl)ccc(C(=O)C2C(=O)CCCC2=O)c1Cl [Example I-2-73] | log P = 1.84^a)
34 | CNC(=S)NCCOc1c(Cl)ccc(C(=O)C2C(=O)CCCC2=O)c1Cl [Example I-2-75] | log P = 2.23^a)
35 | Cc1ccccc1NC(=O)NCc1c(S(C)(=O)=O)ccc(C(=O)c2cnn(C)c2O)c1Cl [Example I-2-81] | log P = 1.58^a)
36 | CN(C)C(=O)NCc1c(S(C)(=O)=O)ccc(C(=O)C2C(=O)CCCC2=O)c1Cl [Example I-2-82] | log P = 1.58^a)
37 | CN(C)C(=O)NCc1c(S(C)(=O)=O)ccc(C(=O)c2cnn(C)c2O)c1Cl [Example I-2-83] | log P = 0.77^a)
38 | Cn1ncc(C(=O)c2ccc(Cl)c(OCCNC(N)=O)c2Cl)c1O [Example I-2-118] | log P = 1.66^a)
39 | Cn1ncc(C(=O)c2ccc(Cl)c(OCCNC(N)=O)c2Cl)c1O [Example I-2-119] | log P = 1.22^a)
40 | Cc1ccccc1NC(=O)NCc1c(S(C)(=O)=O)ccc(C(=O)C2C(=O)CCCC2=O)c1Cl [Example I-2-140] | log P = 2.35^a)

Same assay, conditions: reversed-phase HPLC (C 18), acidic range: 0.1% aqueous phosphoric acid, acetonitrile; 43° C.; labelled a)

Row | Compound | log P
41 | CC(C)NC(=O)N(Cc1ccc(C(=O)C2C(=O)CCCC2=O)c([N+](=O)[O-])c1)C(C)C [Example I-3-5] | log P = 2.53^a)
42 | CC(C)NC(=O)N(Cc1ccc(C(=O)c2cnn(C)c2O)c([N+](=O)[O-])c1)C(C)C [Example I-3-6] | log P = 1.64^a)
43 | CC(C)N(Cc1ccc(C(=O)c2cnn(C)c2O)c([N+](=O)[O-])c1)C(=O)N(C)C [Example I-3-7] | log P = 1.63^a)
44 | CCNC(=O)N(Cc1ccc(C(=O)C2C(=O)CCCC2=O)c([N+](=O)[O-])c1)c1ccccc1 [Example I-3-8] | log P = 2.60^a)
45 | CCNC(=O)N(Cc1ccc(C(=O)c2cnn(C)c2O)c([N+](=O)[O-])c1)c1ccccc1 [Example I-3-9] | log P = 1.75^a)
46 | CC(C)NC(=O)N(Cc1ccc(C(=O)C2C(=O)CCCC2=O)c([N+](=O)[O-])c1)c1ccccc1 [Example I-3-10] | log P = 2.94^a)
47 | CC(C)NC(=O)N(Cc1ccc(C(=O)c2cnn(C)c2O)c([N+](=O)[O-])c1)c1ccccc1 [Example I-3-11] | log P = 2.05^a)
48 | CNC(=O)N(C)Cc1ccc(C(=O)c2cnn(C)c2O)c([N+](=O)[O-])c1 [Example I-3-25] | log P = 0.68^a)
49 | CC(C)N(Cc1ccc(C(=O)C2C(=O)CCCC2=O)c([N+](=O)[O-])c1)C(=O)Oc1ccccc1 [Example I-3-39] | log P = 3.53^a)
50 | CC(C)N(Cc1ccc(C(=O)c2cnn(C)c2O)c([N+](=O)[O-])c1)C(=O)Oc1ccccc1 [Example I-3-40] | log P = 2.59^a)
51 | CCOC(=O)N(Cc1ccc(C(=O)C2C(=O)CCCC2=O)c([N+](=O)[O-])c1)C(C)C [Example I-3-41] | log P = 3.04^a)
52 | CCOC(=O)N(Cc1ccc(C(=O)c2cnn(C)c2O)c([N+](=O)[O-])c1)C(C)C [Example I-3-42] | log P = 2.06^a)

Same assay, conditions: reversed-phase HPLC column (C 18); given in the preparation examples, acidic or neutral range not given

Row | Compound | chromatographic logP
53 | O=C(O)c1ccc(Cl)c(OCCCl)c1Cl [2,4-dichloro-3-(2-chloro-ethoxy)-benzoic acid] | 2.31
54 | CCn1ncc(C(=O)c2ccc(Cl)c(OCCNC(=S)NC)c2Cl)c1O [Example I-2-2, N-(2-{2,6-dichloro-3-[(1-ethyl-5-hydroxy-1H-pyrazol-4-yl)-carbonyl]-phenoxy}-ethyl)-N′-methyl-thiourea] | 1.6
55 | CCn1ncc(C(=O)c2ccc(Cl)c(OCCNC(C)=O)c2Cl)c1OCc1ccc(Br)cc1 [Example I-2-4, N-{2-[3-({5-[(4-bromo-benzyl)-oxy]-1-ethyl-1H-pyrazol-4-yl}-carbonyl)-2,6-dichloro-phenoxy]-ethyl}-acetamide] | 2.06
56 | CCn1ncc(C(=O)c2ccc(Cl)c(OCCN)c2Cl)c1O [II-1, [3-(2-amino-ethoxy)-2,4-dichloro-phenyl]-(1-ethyl-5-hydroxy-1H-pyrazol-4-yl)-methanone] | 0.72
57 | CCn1ncc(C(=O)c2ccc(Cl)c(OCCCl)c2Cl)c1O [[2,4-dichloro-3-(2-chloro-ethoxy)-phenyl]-(1-ethyl-5-hydroxy-1H-pyrazol-4-yl)-methanone] | 2.73
58 | CCOC(=O)c1ccc(Cl)c(OCCCl)c1Cl [ethyl 2,4-dichloro-3-(2-chloro-ethoxy)-benzoate] | 3.76

Test system: weeds
Assay: Post-emergence test, damage to weeds
Type: in vivo
Details: test plants of 5-15 cm sprayed, rated after three weeks
Description: Solvent: 5 part by weight of acetone
Emulsifier: 1 part by weight of alkylaryl polyglycol ether
To produce a suitable preparation of active compound, 1 part by weight of active compound is mixed with the stated amount of solvent, the stated amount of emulsifier is added and the concentrate is diluted with water to the desired concentration.
Test plants of a height of 5-15 cm are sprayed with the preparation of active compound such that the particular amounts of active compound desired are applied per unit area. The concentration of the spray liquor is chosen such that the particular amounts of active compound desired are applied in 1000 l of water/ha.
After three weeks, the degree of damage to the plants is rated in % damage in comparison to the development of the untreated control. The figures denote: • 0%=no effect (like untreated control) • 100%=total destruction

Row | Compound | activity against weeds
59 | CCn1ncc(C(=O)c2ccc(Cl)c(OCCNC(C)=O)c2Cl)c1OCc1ccc(Br)cc1 [Example I-2-4, N-{2-[3-({5-[(4-bromo-benzyl)-oxy]-1-ethyl-1H-pyrazol-4-yl}-carbonyl)-2,6-dichloro-phenoxy]-ethyl}-acetamide] | strong activity
